According to ChEMBL document CHEMBL1201862, “PubChem BioAssay data set” (2004):
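Exposure lasted 48 hours, with cells grown in 96-well plates and compounds tested at five concentrations. GI50: concentration for 50% inhibition of growth.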 Activity calls are given as the source filed them. Rule as the data show it: active = GI50 up to about 1.1 µM and inactive = higher.

Columns and labels:
Assay in all cases: DTP human tumour cell line panel, 48 h
PC-3 = system: PC-3
U-251 = system: U-251
OVCAR-4 = system: OVCAR-4
DU-145 = system: DU-145
HCT-15 = system: HCT-15
UACC-257 = system: UACC-257
SK-MEL-28 = system: SK-MEL-28
UO-31 = system: UO-31
LOX IMVI = system: LOX IMVI
OVCAR-5 = system: OVCAR-5
SF-295 = system: SF-295
UACC-62 = system: UACC-62
OVCAR-8 = system: OVCAR-8
CCRF-CEM = system: CCRF-CEM
HCC 2998 = system: HCC 2998
RPMI-8226 = system: RPMI-8226
IGROV-1 = system: IGROV-1
K562 = system: K562
SR = system: SR
TK-10 = system: TK-10

Question: What does the source list for `CN1CCN(CCCN2c3ccccc3Sc3ccc(C(F)(F)F)cc32)CC1`?
Answer: GI50 (PC-3): 4.72 µM (inactive); GI50 (U-251): 8.34 µM (inactive); GI50 (OVCAR-4): 13.5 µM (inactive); GI50 (DU-145): 16.4 µM (inactive); GI50 (HCT-15): 7.1 µM; GI50 (UACC-257): 2.6 µM (inactive); GI50 (SK-MEL-28): 1.82 µM (inactive); GI50 (UO-31): 5.21 µM (inactive); GI50 (LOX IMVI): 4.57 µM (inactive); GI50 (OVCAR-5): 10.1 µM (inactive); GI50 (SF-295): 9.89 µM (inactive); GI50 (UACC-62): 2.1 µM (inactive); GI50 (OVCAR-8): 15.9 µM (inactive)

Question: Which results are given for `COC(=O)[C@@]1(O)CC(C)C=C1C=O` (stereo not given in full)?
Answer: GI50 (CCRF-CEM): 25.3 µM (inactive); GI50 (HCC 2998): 66.5 µM (inactive); GI50 (U-251): 18.2 µM (inactive); GI50 (OVCAR-4): > 100 µM (inactive); GI50 (RPMI-8226): > 100 µM (inactive); GI50 (IGROV-1): > 100 µM (inactive); GI50 (K562): 55 µM (inactive); GI50 (HCT-15): 17.8 µM; GI50 (UACC-257): > 100 µM (inactive); GI50 (SK-MEL-28): > 100 µM (inactive); GI50 (UO-31): > 100 µM (inactive); GI50 (SR): 55.3 µM (inactive); GI50 (TK-10): > 100 µM (inactive); GI50 (LOX IMVI): 53.5 µM (inactive); GI50 (OVCAR-5): > 100 µM (inactive); GI50 (SF-295): > 100 µM (inactive); GI50 (UACC-62): 73.6 µM (inactive); GI50 (OVCAR-8): > 100 µM (inactive)

Question: `CCCCCCCCCCCCCCCCCC(=O)NCC(COP(=O)([O-])OCC[N+](C)(C)C)OC` (stereo not given) was tested. Which GI50 (CCRF-CEM) did it give?
Answer: 2.02 µM (inactive)

Question: And the GI50 (HCC 2998)?
Answer: 1.05 µM (active)

Question: And the GI50 (U-251)?
Answer: 1.87 µM (inactive)

Question: And the GI50 (OVCAR-4)?
Answer: 3.6 µM (inactive)

Question: What about the GI50 (RPMI-8226) of the same compound?
Answer: 1.63 µM (inactive)

Question: What about the GI50 (IGROV-1) of the same compound?
Answer: 1.91 µM (inactive)

Question: And the GI50 (K562)?
Answer: > 10 µM (inactive)

Question: What about the GI50 (HCT-15) of the same compound?
Answer: 1.95 µM

Question: What about the GI50 (UACC-257) of the same compound?
Answer: 15.9 µM (inactive)

Question: What about the GI50 (SK-MEL-28) of the same compound?
Answer: 16.6 µM (inactive)

Question: What about the GI50 (UO-31) of the same compound?
Answer: 16.9 µM (inactive)

Question: And the GI50 (SR)?
Answer: 2.16 µM (inactive)

Question: And the GI50 (TK-10)?
Answer: 1.56 µM (inactive)

Question: What about the GI50 (LOX IMVI) of the same compound?
Answer: 10.6 µM (inactive)

Question: What about the GI50 (OVCAR-5) of the same compound?
Answer: 4.09 µM (inactive)

Question: What about the GI50 (SF-295) of the same compound?
Answer: 3.46 µM (inactive)

Question: And the GI50 (UACC-62)?
Answer: 4.53 µM (inactive)

Question: What about the GI50 (OVCAR-8) of the same compound?
Answer: 10.9 µM (inactive)

Question: `COc1ccc(-c2cc(=O)c3c(OC)c(OC)c(OC)c(OC)c3o2)cc1` [TANGERETIN] was tested. Which GI50 (CCRF-CEM) did it give?
Answer: 82.6 µM (inactive)

Question: And the GI50 (HCC 2998)?
Answer: 91 µM (inactive)

Question: What about the GI50 (U-251) of the same compound?
Answer: 91 µM (inactive)

Question: What about the GI50 (OVCAR-4) of the same compound?
Answer: 46.1 µM (inactive)

Question: What about the GI50 (DU-145) of the same compound?
Answer: 85.5 µM (inactive)

Question: And the GI50 (RPMI-8226)?
Answer: 67 µM (inactive)

Question: And the GI50 (IGROV-1)?
Answer: 69 µM (inactive)

Question: What about the GI50 (K562) of the same compound?
Answer: 37.8 µM (inactive)

Question: What about the GI50 (HCT-15) of the same compound?
Answer: 35 µM

Question: And the GI50 (UACC-257)?
Answer: 68.4 µM (inactive)

Question: And the GI50 (SK-MEL-28)?
Answer: > 100 µM (inactive)

Question: And the GI50 (UO-31)?
Answer: 37.5 µM (inactive)

Question: What about the GI50 (SR) of the same compound?
Answer: > 100 µM (inactive)

Question: What about the GI50 (TK-10) of the same compound?
Answer: 58.2 µM (inactive)

Question: What about the GI50 (LOX IMVI) of the same compound?
Answer: 52.2 µM (inactive)

Question: And the GI50 (OVCAR-5)?
Answer: > 100 µM (inactive)

Question: And the GI50 (SF-295)?
Answer: 55.3 µM (inactive)

Question: What about the GI50 (UACC-62) of the same compound?
Answer: 22.4 µM (inactive)

Question: And the GI50 (OVCAR-8)?
Answer: 41.2 µM (inactive)

Question: What does the source list for `CC(=O)NNc1nc(C)c(C(=O)NNC(=O)C(=O)Nc2ccc(Cl)c([N+](=O)[O-])c2)s1`?
Answer: GI50 (CCRF-CEM): 21.9 µM (inactive); GI50 (HCC 2998): 66.1 µM (inactive); GI50 (U-251): 50.9 µM (inactive); GI50 (OVCAR-4): 34.4 µM (inactive); GI50 (RPMI-8226): 43.7 µM (inactive); GI50 (IGROV-1): > 100 µM (inactive); GI50 (K562): 26.2 µM (inactive); GI50 (HCT-15): 49.3 µM; GI50 (UACC-257): 37.4 µM (inactive); GI50 (SK-MEL-28): > 100 µM (inactive); GI50 (UO-31): > 100 µM (inactive); GI50 (SR): 35.1 µM (inactive); GI50 (TK-10): > 100 µM (inactive); GI50 (LOX IMVI): 31.3 µM (inactive); GI50 (OVCAR-5): > 100 µM (inactive); GI50 (SF-295): 74.8 µM (inactive); GI50 (UACC-62): 58.9 µM (inactive); GI50 (OVCAR-8): 54.8 µM (inactive)

Question: Which GI50 (CCRF-CEM) does the source give for `Cc1ccc(S[C@@H](C)[C@@](O)(CF)CN(Cc2ccccc2)C(=O)C(F)(F)F)cc1` here?
Answer: 11 µM (inactive)

Question: What about the GI50 (PC-3) of the same compound?
Answer: 29.1 µM (inactive)

Question: What about the GI50 (HCC 2998) of the same compound?
Answer: 18.3 µM (inactive)

Question: What about the GI50 (U-251) of the same compound?
Answer: 19 µM (inactive)

Question: What about the GI50 (OVCAR-4) of the same compound?
Answer: 14.9 µM (inactive)

Question: What about the GI50 (DU-145) of the same compound?
Answer: 26.9 µM (inactive)

Question: And the GI50 (IGROV-1)?
Answer: > 100 µM (inactive)

Question: And the GI50 (HCT-15)?
Answer: 17.1 µM

Question: And the GI50 (UACC-257)?
Answer: 20.9 µM (inactive)

Question: What about the GI50 (SK-MEL-28) of the same compound?
Answer: > 100 µM (inactive)

Question: And the GI50 (UO-31)?
Answer: 16.6 µM (inactive)

Question: What about the GI50 (TK-10) of the same compound?
Answer: 35.2 µM (inactive)

Question: What about the GI50 (LOX IMVI) of the same compound?
Answer: 40.3 µM (inactive)

Question: What about the GI50 (OVCAR-5) of the same compound?
Answer: 14.8 µM (inactive)

Question: And the GI50 (UACC-62)?
Answer: 13.8 µM (inactive)

Question: What about the GI50 (OVCAR-8) of the same compound?
Answer: 5.09 µM (inactive)

Question: What does the source list for `CCCCCCCCCCCCC/C=C1\C[C@H](O)COC1=O`?
Answer: GI50 (CCRF-CEM): 14.3 µM (inactive); GI50 (HCC 2998): 20.9 µM (inactive); GI50 (U-251): 17.7 µM (inactive); GI50 (OVCAR-4): 16.9 µM (inactive); GI50 (RPMI-8226): 17.5 µM (inactive); GI50 (IGROV-1): 18.1 µM (inactive); GI50 (K562): 15.9 µM (inactive); GI50 (HCT-15): 16.5 µM; GI50 (UACC-257): 14.8 µM (inactive); GI50 (SK-MEL-28): 16.2 µM (inactive); GI50 (UO-31): 18.6 µM (inactive); GI50 (SR): 18.6 µM (inactive); GI50 (TK-10): 17.6 µM (inactive); GI50 (OVCAR-5): 19.2 µM (inactive); GI50 (SF-295): 18.1 µM (inactive); GI50 (UACC-62): 13.7 µM (inactive)

Question: Which results are given for `COC1(OC)c2ccccc2C2(O)c3ccccc3C(=O)C12` (stereo not given)?
Answer: GI50 (CCRF-CEM): 22.5 µM (inactive); GI50 (HCC 2998): 57.1 µM (inactive); GI50 (U-251): 43 µM (inactive); GI50 (RPMI-8226): 5.79 µM (inactive); GI50 (IGROV-1): 18.2 µM (inactive); GI50 (K562): 12.6 µM (inactive); GI50 (HCT-15): 25.3 µM; GI50 (UACC-257): 17.9 µM (inactive); GI50 (SK-MEL-28): > 100 µM (inactive); GI50 (UO-31): 16.4 µM (inactive); GI50 (SR): 22.9 µM (inactive); GI50 (TK-10): 37.3 µM (inactive); GI50 (LOX IMVI): 44.7 µM (inactive); GI50 (OVCAR-5): > 100 µM (inactive); GI50 (SF-295): 54 µM (inactive); GI50 (UACC-62): 13.6 µM (inactive); GI50 (OVCAR-8): 39.4 µM (inactive)
